Assay results published in publication PMC4303209, “A novel phosphatidylinositol 3-kinase (PI3K) inhibitor directs a potent FOXO-dependent, p53-independent cell cycle arrest phenotype characterized by the differential induction of a subset of FOXO-regulated genes” (Breast Cancer Research : BCR, 2014).

Test system: MCF-7 breast cancer cells
Test: Microarray gene expression analysis (Agilent whole human genome 4 x 44K; compound vs DMSO, LIMMA log2 fold change)
Assay type: cell-based
Conditions: cell cycle genes

Oc1cccc(-c2nc(N3CCOCC3)c3oc4ncccc4c3n2)c1 [PI-103]
MLF1 log2FC (Gene 4291): 0.58
MLH1 log2FC (Gene 4292): 0.34
MAP3K11 log2FC (Gene 4296): -0.58
MNAT1 log2FC (Gene 4331): 0.59
MNT log2FC (Gene 4335): 1.54
MOS log2FC (Gene 4342): -0.08
MRE11A log2FC (Gene 4361): 0.27
MSH2 log2FC (Gene 4436): 0.79
MSH3 log2FC (Gene 4437): 0.54
MSH4 log2FC (Gene 4438): -0.0458
MSX1 log2FC (Gene 4487): -0.24
MSX2 log2FC (Gene 4488): 0.05
MUC1 log2FC (Gene 4582): -0.28
TRIM37 log2FC (Gene 4591): 0.67
MX2 log2FC (Gene 4600): -0.08
MYB log2FC (Gene 4602): 0.51
MYBL2 log2FC (Gene 4605): -0.39
MYC log2FC (Gene 4609): 0.42
GADD45B log2FC (Gene 4616): 0.86
MYH9 log2FC (Gene 4627): -0.23
MYH10 log2FC (Gene 4628): -0.0425
PPP1R12A log2FC (Gene 4659): 0.42
PPP1R12B log2FC (Gene 4660): 0.33
NUBP1 log2FC (Gene 4682): -0.22
NBN log2FC (Gene 4683): 0.62
NEDD9 log2FC (Gene 4739): 0.0368
NEK1 log2FC (Gene 4750): 0.57
NEK2 log2FC (Gene 4751): 1.00
NEUROD1 log2FC (Gene 4760): 0.04
NGFR log2FC (Gene 4804): -0.07
NOTCH2 log2FC (Gene 4853): 0.27
NPAT log2FC (Gene 4863): 0.48
NPM1 log2FC (Gene 4869): 0.28
NUP88 log2FC (Gene 4927): 0.08
ODF2 log2FC (Gene 4957): -0.13
OSM log2FC (Gene 5008): -0.00804
OVOL1 log2FC (Gene 5017): -0.06
PAFAH1B1 log2FC (Gene 5048): 0.72
PAK1 log2FC (Gene 5058): 0.07
PAK3 log2FC (Gene 5063): 0.09
PCM1 log2FC (Gene 5108): 0.63
PCNT log2FC (Gene 5116): 0.45
PDGFB log2FC (Gene 5155): -0.24
PDGFRB log2FC (Gene 5159): 0.0243
PGGT1B log2FC (Gene 5229): -0.28
ABCB1 log2FC (Gene 5243): -0.02
PIK3C3 log2FC (Gene 5289): 1.00
PIM1 log2FC (Gene 5292): 1.29
PIN1 log2FC (Gene 5300): -0.0472
PKD1 log2FC (Gene 5310): 0.37
PKD2 log2FC (Gene 5311): 0.13
PKHD1 log2FC (Gene 5314): -0.09
PLAGL1 log2FC (Gene 5325): 0.32
PML log2FC (Gene 5371): -0.41
PMS1 log2FC (Gene 5378): 0.55
PMS2 log2FC (Gene 5395): 0.12
POLD1 log2FC (Gene 5424): 0.33
POLE log2FC (Gene 5426): -0.10
PPAT log2FC (Gene 5471): 0.07
PPM1A log2FC (Gene 5494): 0.27
PPP1CB log2FC (Gene 5500): 0.81
PPP1CC log2FC (Gene 5501): 0.33
PPP2R1A log2FC (Gene 5518): 0.06
PPP2R2A log2FC (Gene 5520): -0.06
PPP2R4 log2FC (Gene 5524): -0.32
PPP2R5C log2FC (Gene 5527): 0.78
PPP3CA log2FC (Gene 5530): 0.45
PPP5C log2FC (Gene 5536): -0.24
PPP6C log2FC (Gene 5537): -0.35
PRCC log2FC (Gene 5546): -0.66
PRIM1 log2FC (Gene 5557): 0.46
PRKAA1 log2FC (Gene 5562): 0.30
PRKAA2 log2FC (Gene 5563): 0.07
PRKAB1 log2FC (Gene 5564): 0.25
PRKAB2 log2FC (Gene 5565): 0.81
PRKACA log2FC (Gene 5566): -0.35
PKIA log2FC (Gene 5569): -0.29
PRKAG1 log2FC (Gene 5571): 0.09
PRKAR1A log2FC (Gene 5573): 0.45
PRKAR2B log2FC (Gene 5577): 0.43
PRKCA log2FC (Gene 5578): -0.16
PRKCD log2FC (Gene 5580): 0.12
PRKCE log2FC (Gene 5581): -0.00329
PKN2 log2FC (Gene 5586): 0.51
MAPK1 log2FC (Gene 5594): 0.0165
MAPK3 log2FC (Gene 5595): -0.12
MAPK13 log2FC (Gene 5603): -0.17
MAP2K1 log2FC (Gene 5604): -0.23
MAP2K6 log2FC (Gene 5608): 0.36
PROX1 log2FC (Gene 5629): -0.08
KLK10 log2FC (Gene 5655): -0.42
PSMA1 log2FC (Gene 5682): -0.03
PSMA4 log2FC (Gene 5685): 0.47
PSMA6 log2FC (Gene 5687): 0.07
PSMB1 log2FC (Gene 5689): 0.00908
PSMB2 log2FC (Gene 5690): -0.43
PSMB3 log2FC (Gene 5691): 0.0534
PSMB5 log2FC (Gene 5693): -0.22
PSMB6 log2FC (Gene 5694): -0.08
PSMB8 log2FC (Gene 5696): -0.00568
PSMC1 log2FC (Gene 5700): -0.00867
PSMC2 log2FC (Gene 5701): 0.28
PSMC5 log2FC (Gene 5705): -0.31
PSMC6 log2FC (Gene 5706): 0.52
PSMD2 log2FC (Gene 5708): 0.00374
PSMD3 log2FC (Gene 5709): -0.0745
PSMD4 log2FC (Gene 5710): -0.0364
PSMD5 log2FC (Gene 5711): 0.19
PSMD7 log2FC (Gene 5713): 0.00364
PSMD9 log2FC (Gene 5715): -0.40
PSMD12 log2FC (Gene 5718): -0.77
PSMD13 log2FC (Gene 5719): -0.17
PSME2 log2FC (Gene 5721): 0.04
PTEN log2FC (Gene 5728): 0.96
PTGS2 log2FC (Gene 5743): -0.0533
PTPN3 log2FC (Gene 5774): -0.31
PTPN6 log2FC (Gene 5777): 0.26
PTPRC log2FC (Gene 5788): -0.0261
PTPRK log2FC (Gene 5796): 0.72
RAD1 log2FC (Gene 5810): -0.29
RAD9A log2FC (Gene 5883): 0.68
RAD17 log2FC (Gene 5884): 1.15
RAD21 log2FC (Gene 5885): 0.83
RAD51 log2FC (Gene 5888): -0.29
RAD52 log2FC (Gene 5893): 0.14
RAN log2FC (Gene 5901): -0.14
RANBP1 log2FC (Gene 5902): -0.10
RANBP2 log2FC (Gene 5903): 0.42
RARA log2FC (Gene 5914): -0.31
RASA1 log2FC (Gene 5921): 0.47
RB1 log2FC (Gene 5925): 0.67
RBL2 log2FC (Gene 5934): 0.41
RFC1 log2FC (Gene 5981): 1.04
RFC2 log2FC (Gene 5982): -0.10
RFC5 log2FC (Gene 5985): 0.15
RGS2 log2FC (Gene 5997): -2.43
RHEB log2FC (Gene 6009): 0.40
RNF2 log2FC (Gene 6045): -0.11
RNF4 log2FC (Gene 6047): -0.48
RPA3 log2FC (Gene 6119): 0.23
RPS6KA2 log2FC (Gene 6196): 0.19
RPS6KA3 log2FC (Gene 6197): 0.27
RPS15A log2FC (Gene 6210): 0.48
RPS27 log2FC (Gene 6232): 0.35
RPS27A log2FC (Gene 6233): 0.45
RRM1 log2FC (Gene 6240): 0.36
RRM2 log2FC (Gene 6241): -0.81
SETMAR log2FC (Gene 6419): -0.16
SIAH2 log2FC (Gene 6478): -0.48
SKP2 log2FC (Gene 6502): -1.28
SMARCA4 log2FC (Gene 6597): -0.39
SOX2 log2FC (Gene 6657): 0.23
SOX9 log2FC (Gene 6662): -2.01
SPAST log2FC (Gene 6683): 0.37
SPTBN1 log2FC (Gene 6711): 0.11
SRPK2 log2FC (Gene 6733): 0.78
TRIM21 log2FC (Gene 6737): 0.02
